Results from patent US20190307886A1, “A CO-AMORPHOUS FORM OF A SUBSTANCE AND A PROTEIN” (University of Copenhagen, priority 2016, published 2019).

What was measured:
Format in all cases: physicochemical
[1] = Intrinsic dissolution rate from powder compacts; details: for y (mg cm^−2 min^−1), line equation of intrinsic dissolution testing; slope = intrinsic dissolution rate: Table 2a, 0.1 M phosphate buffer pH 7.2, 37° C., 50 rpm; for intrinsic dissolution rate (IDR): phosphate buffer pH 7.2, 37° C.
Experimental: The intrinsic dissolution rate (IDR) was determined from powder compacts obtained with a hydraulic press (PerkinElmer, Hydraulische Presse Model IXB-102-9, Ueberlingen, Germany). Ball-milled powders of pure drug and spray dried powders of drug-protein mixtures were compressed into tablets. Tablets of 150 mg were directly compressed into stainless steel cylinders that served as intrinsic dissolution sample holders at a pressure of 124.9 MPa for 45 secs. […] These cylinders were then placed in 900 ml of 0.1 M phosphate buffer (pH 7.2, 37° C.) dissolution medium and stirred using a magnetic bar at a rotation speed of 50 rpm. At predetermined time points (1, 5, 10, 15, 20, 25 and 30 min, some IDRs were only determined up to 20 min), 5 ml aliquots were withdrawn and immediately replaced with dissolution buffer. The obtained samples were then analyzed using UV spectrophotometer (see below). All dissolution experiments were conducted in triplicate.

[2] = Physical stability on storage over silica gel at room temperature, XRPD; details: recrystallization shown by XRPD
Experimental: The molecular interactions of the drug substance-WPI/WPH mixtures were investigated by XRPD using an X'Pert PANanalytical PRO X-ray diffractometer (PANanalytical, Almelo, The Netherlands) with Cukα radition: 1.54187 Å, current: 40 mA and acceleration voltage: 45 kV. Each of the co-amorphous forms obtained either by spray drying or ball milling were scanned (scan rate of 0.067° 2θ/s and step size of 0.026°) with reflectance mode between 2° and 35° 2θ. The collected data was analysed using X'Pert PANanalytical Collector software (PANanalytical, Almelo, The Netherlands).
All samples were stored in a desiccator over silica gel (0% relative humidity) at room temperature and a physical stability study was performed for all SD samples. Each sample was analyzed by XRPD at day 0 and subsequently once every month thereafter.

[3] = Thermogravimetric analysis for measurement of residual moisture; details: Table 1a; amorphous drugs and spray dried forms with WPI, WPH, WPI components, digested WPI, PVP
Experimental: Thermogravimetric analysis for measurement of residual moisture:
Thermogravimetric analysis was performed on a TGA Discovery instrument (TA Instruments, New Castle, USA). Samples of 10 mg were placed in a platinum pan and sealed with a lid and heated from 25 to 300° C. at 10° C./min. Resulting weight-temperature diagrams were analyzed using Trios software (TA Instruments, New Castle, USA) to calculate the weight loss between 25 and 150° C.

[4] = Powder dissolution (USP II apparatus)
Experimental: Powder dissolution was performed in USP type II apparatus. […] The dissolution paddles were rotated at 50 rpm […] taking samples out at 1, 3, 5, 7, 10, 15, 20, 25, 30, 35, 40, 50, 60 and 120 mins. Each sample of 5 ml was taken out and replaced by dissolution medium. To separate powders from medium, the samples were filtered through a 0.45 μm syringe filter (Qmax, Frisinette ApS) and the first 2 ml was discarded to minimize losses due to adsorption. The samples were examined using UV Vis to analyze the drug concentration.

y (mg cm^−2 min^−1), line equation of intrinsic dissolution testing; slope = intrinsic dissolution rate [1]	time found to be stable (in words) [2]	TGA (residual moisture content in %) [3] [%]	Compound	other results
y = 0.0214x + 2.973 mg cm^−2 min^−1	less than a week	3.1 ± 0.3	COc1ccccc1OCCNCC(O)COc1cccc2[nH]c3ccccc3c12 (centres unmarked) [A CAR, carvedilol]	intrinsic dissolution rate (IDR) ([1]; listed as ball milled amorphous CAR): 0.0214 mg cm^−2 min^−1; fold increase in IDR compared to crystalline CAR ([1]; vs C CAR): 1.8 fold
y = 0.1333x + 4.5538 mg cm^−2 min^−1	less than a week	3.2 ± 0.4	COc1ccc2c(c1)c(CC(=O)O)c(C)n2C(=O)c1ccc(Cl)cc1 [A IND, indomethacin]	intrinsic dissolution rate (IDR) ([1]; listed as amorphous ball milled IND): 0.1333 mg cm^−2 min^−1; powder dissolution (comparison in words) ([4]; USP type II, 200 mg in 50 ml phosphate buffer pH 7.2, 50 rpm): more dissolution than the PM IND-WPI; solubility of IND in its amorphous state ([4]; phosphate buffer pH 7.2, vs crystalline IND): more than double the value crystalline IND
y = 0.0117x + 2.8082 mg cm^−2 min^−1	–	–	COc1ccccc1OCCNCC(O)COc1cccc2[nH]c3ccccc3c12 (centres unmarked) [C CAR, carvedilol]	intrinsic dissolution rate (IDR) ([1]; listed as crystalline CAR): 0.0117 mg cm^−2 min^−1
y = 0.0787x + 4.006 mg cm^−2 min^−1	–	–	COc1ccc2c(c1)c(CC(=O)O)c(C)n2C(=O)c1ccc(Cl)cc1 [C IND, indomethacin]	intrinsic dissolution rate (IDR) ([1]; listed as crystalline IND): 0.0787 mg cm^−2 min^−1

The next lines start with the compound.

Compound	y (mg cm^−2 min^−1), line equation of intrinsic dissolution testing; slope = intrinsic dissolution rate [1]	time found to be stable (in words) [2]	TGA (residual moisture content in %) [3] [%]	other results
NS(=O)(=O)c1cc(C(=O)O)c(NCc2ccco2)cc1Cl [A FUR, furosemide]	–	less than a week	3.6 ± 0.3	–
CC(=O)Nc1ccc(O)cc1 [A PAR, paracetamol]	y = 0.201x + 4.5947 mg cm^−2 min^−1	less than a week	–	intrinsic dissolution rate (IDR) ([1]; listed as ball milled amorphous PAR): 0.201 mg cm^−2 min^−1; fold increase in IDR compared to crystalline PAR ([1]; vs C PAR): 1.2 fold
CC(=O)Nc1ccc(O)cc1 [C PAR, paracetamol]	y = 0.1632x + 2.3462 mg cm^−2 min^−1	–	–	intrinsic dissolution rate (IDR) ([1]; listed as crystalline PAR): 0.1632 mg cm^−2 min^−1
